Reference: ChEMBL document CHEMBL4052737, “3-Oxo-γ-costic acid fungal-transformation generates eudesmane sesquiterpenes with in vitro tumor-inhibitory activity” (Bioorg Med Chem Lett, 2017)
Calls of active or inactive are those of the source. The rule behind the calls is not given here.

Columns and labels:
Assay type in all cases: functional, cell-based
Caco-2 [1] = test: Antiproliferative activity against human Caco2 cells after 48 hrs by MTT assay; details: for IC50: Caco-2, 48 h
A549 = test: Antiproliferative activity against human A549 cells after 48 hrs by MTT assay; details: for IC50: A549, 48 h
Caco-2 [2] = test: Induction of morphological changes in human Caco2 cells assessed as monolayer disruption at 50 uM by bright field phase contrast microscopy
Caco-2 [3] = test: Induction of morphological changes in human Caco2 cells assessed as cell shrinkage at 50 uM by bright field phase contrast microscopy

| SMILES | IC50 (Caco-2 [1]) [µM] | IC50 (A549) [µM] | Activity (Caco-2 [1]) | Activity (A549) | Activity (Caco-2 [2]) | Activity (Caco-2 [3]) |
| --- | --- | --- | --- | --- | --- | --- |
| C=C(C(=O)O)[C@@H]1CC[C@@]2(C)C[C@H](O)C(=O)C(C)=C2C1 | 60 | > 100 | Dose-dependent effect | Dose-dependent effect | – | – |
| C=C(C(=O)O)[C@@H]1CC[C@@]2(C)C=C(O)C(=O)C(C)=C2C1 | 46 | > 100 | Dose-dependent effect | Dose-dependent effect | – | – |
| C=C(C(=O)O)[C@@H]1CC[C@@]2(C)C=CC(=O)C(C)=C2C1 | 66 | > 100 | Dose-dependent effect | Dose-dependent effect | – | – |
| C=C(C(=O)O)[C@@H]1CC[C@]2(C)C(=C(C)C(=O)[C@@H](O)[C@H]2O)C1 | 66 | 74 | Dose-dependent effect | Dose-dependent effect | – | – |

Second part, led by results:

| IC50 (Caco-2 [1]) [µM] | IC50 (A549) [µM] | SMILES | Activity (Caco-2 [1]) | Activity (A549) | Activity (Caco-2 [2]) | Activity (Caco-2 [3]) |
| --- | --- | --- | --- | --- | --- | --- |
| 75 | > 100 | C=C(C(=O)O)[C@@H]1CC[C@]2(C)C(=C(C)C(=O)C[C@H]2O)C1 | Dose-dependent effect | Dose-dependent effect | – | – |
| 39 | > 100 | C=C(C(=O)O)[C@@H]1CC[C@@]2(C)CCC(=O)C(C)=C2C1 | Dose-dependent effect | Dose-dependent effect | Active | Active |
